Measured values reported in patent US5324832A, “Muscarinic antagonists” (priority 1991, dated 1994).
“Also recorded” adds a separate entry of the source.

What was measured:
muscarinic receptors = conditions: in words; cited from earlier work
m2 muscarinic receptors = biological target: T1, m2 muscarinic receptors (Rattus norvegicus, UniProt P10980); test: Inhibition of [3H]NMS binding, membranes from rat heart (m2 receptors); conditions: for factor by which 29a and 32d differ in affinity at m2 receptors: 29a versus 32d
T1 construct: Rat heart tissue was the source of m2 muscarinic receptors; from tissue; host or cells: rat heart
T1 sequence (P10980 1-466): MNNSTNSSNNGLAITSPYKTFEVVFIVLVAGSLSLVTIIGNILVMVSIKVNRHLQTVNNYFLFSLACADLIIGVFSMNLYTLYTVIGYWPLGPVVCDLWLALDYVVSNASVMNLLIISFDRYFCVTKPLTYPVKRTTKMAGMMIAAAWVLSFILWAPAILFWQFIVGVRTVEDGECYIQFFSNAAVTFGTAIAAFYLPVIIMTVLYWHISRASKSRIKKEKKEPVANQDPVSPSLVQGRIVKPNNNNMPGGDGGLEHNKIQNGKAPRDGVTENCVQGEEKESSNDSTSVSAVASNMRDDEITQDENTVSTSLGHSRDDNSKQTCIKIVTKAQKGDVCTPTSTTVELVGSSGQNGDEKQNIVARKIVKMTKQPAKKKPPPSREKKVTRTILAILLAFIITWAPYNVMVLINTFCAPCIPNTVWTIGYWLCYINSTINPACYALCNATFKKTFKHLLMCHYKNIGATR
Text: (§1) The analogues were screened in binding assays using membranes from cells or tissues containing primarily single subtypes of m1 through m4 muscarinic receptors. Transfected A9L cells were used as a source of homogeneous populations of m1, m3, and m4 receptors. See Jones, S. V.; Barker, J. L.; Buckley, N. J.; Bonner, T. I; Brann, M. R., Mol. Pharmacol., 1988, 34, 421, which is specifically incorporated by reference herein. Rat heart tissue was the source of m2 muscarinic receptors.
(§2) A crude membrane fraction was obtained as follows. Confluent cultures were rinsed three times with phosphate-buffered saline, and lysed in a solution of 2 mM Tris-HCl (pH 7.1) and 1 mM EDTA for 30 min at 2° C. The cells were harvested by scraping and homogenized on a Polytron (10 sec, 75% mix).
(§3) Nuclei were removed in a low speed centrifugation (400 × g, 5 min) and a crude membrane preparation was obtained by centrifugation of the supernatant at 50,000 × g for 20 min. The resulting pellet was resuspended in the lysis buffer and recentrifuged at 50,000 × g for 20 min. Membranes were stored frozen at -70° C. until needed.
(§4) The total volume was 1 mL.
(§5) The incubation was terminated by rapid filtration over GF/B filters using a Brandel cell harvester. The filters were washed three times with ice-cold 0.9% NaCl, equilibrated in scintillation counting fluid and counted on a Beckmann LS 5801 liquid scintillation counter at 47% efficiency.
(§6) It was routinely subtracted from the total counts.

[1] = system: m1 through m4 muscarinic receptors; test: Displacement of [3H]NMS from muscarinic receptors (m1-m4), subtype not singled out; format: binding; conditions: for receptor subtype selectivity / affinity / potency at muscarinic receptors / displacement of [3H]NMS from the receptor: in words; for receptor subtype selectivity: m1 versus m2 / among subtypes; for Ki: in the vicinity of, subtype not stated, read-out: Ki, inhibition of [3H]NMS binding; for affinity / potency at muscarinic receptors: qualitative
Text: as §1, §2, §3, §4, §5, §6

m1 muscarinic receptors [2] = biological target: T2, m1 muscarinic receptors (Rattus norvegicus, UniProt P08482); test: Inhibition of [3H]NMS binding, membranes of transfected A9L cells expressing m1 receptors; set-up: expressed in transfected cells; host or cells: A9L cells (obtained from Dr. M. Brann, NIH); conditions: for selectivity ratio m1 versus m2 receptors: in favor of m1 versus m2 receptors; for factor by which 29a and 32d differ in affinity at m1 receptors: 29a versus 32d
T2 sequence (P08482 1-460): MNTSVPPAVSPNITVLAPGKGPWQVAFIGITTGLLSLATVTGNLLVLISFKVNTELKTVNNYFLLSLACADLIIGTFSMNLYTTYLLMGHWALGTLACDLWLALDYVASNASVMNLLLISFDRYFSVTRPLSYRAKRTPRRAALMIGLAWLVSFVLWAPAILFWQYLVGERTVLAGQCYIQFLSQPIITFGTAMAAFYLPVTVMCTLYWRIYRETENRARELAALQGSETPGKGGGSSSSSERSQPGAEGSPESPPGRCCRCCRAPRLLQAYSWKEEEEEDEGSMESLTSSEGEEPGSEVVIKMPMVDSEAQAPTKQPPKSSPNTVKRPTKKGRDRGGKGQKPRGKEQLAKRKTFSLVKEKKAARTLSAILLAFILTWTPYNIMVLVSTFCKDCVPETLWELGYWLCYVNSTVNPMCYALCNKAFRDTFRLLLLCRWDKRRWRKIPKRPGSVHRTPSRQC
Method: The analogues were screened in binding assays using membranes from cells or tissues containing primarily single subtypes of m1 through m4 muscarinic receptors. Transfected A9L cells were used as a source of homogeneous populations of m1, m3, and m4 receptors. […] Rat heart tissue was the source of m2 muscarinic receptors.
A crude membrane fraction was obtained as follows. Confluent cultures were rinsed three times with phosphate-buffered saline, and lysed in a solution of 2 mM Tris-HCl (pH 7.1) and 1 mM EDTA for 30 min at 2° C.
as §3, §4
The incubation was terminated by rapid filtration over GF/B filters using a Brandel cell harvester.
as §6

m1 muscarinic receptors [3] = biological target: T2, m1 muscarinic receptors; format: binding; conditions: 1.0 mM compound 26, in words
Method: To assay for irreversible inhibition in rat brain membranes, Scatchard analyses before and after treatment of the membranes with 26 were compared. Even a very […].
Aliquots of brain membranes were incubated with 1.0 mM of freshly dissolved 26 in phosphate-buffered saline (pH 8.0) for 60 min at room temperature, then centrifuged at 15,000 rpm for 10 min.
The resulting pellet was resuspended in 25 mL of fresh phosphate-buffered saline (pH 7.2) and centrifuged as above.

[4] = Storage stability of the salt; format: physicochemical; conditions: -20 ° C.; dihydrochloride salt
Method: Compound 25 (110 mg, 0.22 mmol) was refluxed for 1 h with thionyl chloride (1 mL) in chloroform (4 mL). The volatile material was removed in vacuo, and the residue was basified with aqueous Na2 CO3 (pH 10) and washed immediately with ether to completely remove the non polar impurity (TLC CHCl3 /CH3 OH/NH4 OH: 9/1/0.1, Rf 0.4). The product was extracted into CHCl3 from the cold aqueous phase and the combined CHCl3 layers were concentrated in vacuo and acidified using ether/HCl. The precipitate was dried in vacuo to yield 29 mg of 26 (25%) as a white solid: mp 188°-190° C.; 1H NMR (D20, HCl salt) δ 3.00-4.00 (m, 14 H), 7.50-7.70 (m, 3 H), 7.70-7.90 (m, 3 H), 8.40 (s, 1 H); MS (CI/NH3) m/e 400 (MH+), 212 (base), 364, 338. […] The salt was stable upon storage at -20 ° C. for at least 6 months.

[5] = in words, versus propargyl derivative 22

COc1ccccc1CNCCCCCCNCCCCCCCCNCCCCCCNCc1ccccc1OC [methoctramine]
muscarinic receptor selectivity (literature) (muscarinic receptors): m2-selective muscarinic antagonist

O=C1Nc2cccnc2N(C(=O)CN2CCN(Cc3ccccc3)CC2)c2ccccc21 [Compound 23, 5,11-Dihydro-11-[(4-benzyl-1-piperazinyl)acetyl]-6H-pyrido[2,3-b] [1,4]benzodiazepine-6-one]
affinity at m2 muscarinic receptors relative to 22 (m2 muscarinic receptors; [5]): greater affinity at m1 and m2 muscarinic receptors | receptor subtype selectivity [1]: non-selective for m1 versus m2 receptors | affinity at m1 muscarinic receptors relative to 22 (m1 muscarinic receptors [2]; [5]): greater affinity at m1 and m2 muscarinic receptors

O=C1Nc2cccnc2N(C(=O)CN2CCN(CCO)CC2)c2ccccc21 [Compound 25, 5,11-Dihydro-11-[(4-[2-hydroxyethyl]-1-piperazinyl)acetyl]-6H-pyrido[2,3-b][1,4]benzodiazepine-6-one]
Ki [1]: ~1000 nM

Cc1scc2c1N(C(=O)CN1CCN(CCCCCCCCCCN)CC1)c1ccccc1NC2=O [Compound 40, n=10, 4,9-Dihydro-3-methyl-4-[[4-(10-aminodecyl)-1-piperazinyl]-acetyl]-10H-thieno[3,4-b][1,5]benzodiazepin-10-one]
Ki (m1 muscarinic receptors [2]; radioligand binding assays, read-out: affinity for m1 receptors (Ki)): 2.39 nM

NCCCCCCCCCCN1CCN(CC(=O)N2c3ccccc3C(=O)Nc3cccnc32)CC1 [Compound 34h, 5,11-Dihydro-11-[(4-[10-aminodecyl]-1-piperazinyl)acetyl]-6H-pyrido[2,3-b][1,4]-benzodiazepine-6-one]
Kd (m2 muscarinic receptors; m2): < 20 nM | affinity / potency at muscarinic receptors [1]: higher affinities than the corresponding derivatives with the small neutral acetylamino terminal group (35g and 35h); also recorded: most potent in the series of primary amines | receptor subtype selectivity [1]: non-selective | Kd (m1 muscarinic receptors [2]; m1): < 20 nM

CSc1ccc2c(c1)C(=O)Nc1cccnc1N2C(=O)CN1CCN(C)CC1 [Compound 11a]
displacement of [3H]NMS from the receptor [1]: detectable displacement of [^3 H]NMS

Cl.Cl.O=C1Nc2cccnc2N(C(=O)CN2CCN(CCCl)CC2)c2ccccc21 [Compound 26, 5,11-Dihydro-11-[(4-[2-chloroethyl]-1-piperazinyl)acetyl]-6H-pyrido[2,3-b][1,4]benzodiazepine-6-one dihydrochloride]
affinity / potency at muscarinic receptors [1]: high binding affinity | receptor subtype selectivity [1]: retained selectivity for m1 receptors | change in Kd and Bmax of [3H]NMS after preincubation (m1 muscarinic receptors [3]): no change in the Kd and Bmax values | irreversible inhibition of m1 receptors (m1 muscarinic receptors [3]; dihydrochloride): not an irreversible inhibitor of m1 receptors; also recorded: lack of irreversible inhibition | stability of the salt upon storage [4]: at least 6 months | selectivity ratio m1 versus m2 receptors (m1 muscarinic receptors [2]): 4.4 fold

NCCN1CCN(CC(=O)N2c3ccccc3C(=O)Nc3cccnc32)CC1 [Compound 27, 5,11-Dihydro-11-[(4-[2-aminoethyl]-1-piperazinyl)acetyl]-6H-pyrido[2,3-b][1,4]benzodiazepine-6-one]
Ki [1]: ~1000 nM

NCCCCCCCCCN1CCN(CC(=O)N2c3ccccc3C(=O)Nc3cccnc32)CC1 [Compound 34g]
affinity / potency at muscarinic receptors [1]: higher affinities than the corresponding derivatives with the small neutral acetylamino terminal group (35g and 35h)

Cc1scc2c1N(C(=O)CN1CCN(C)CC1)c1ccccc1NC2=O [telenzepine]
muscarinic receptor selectivity (literature) (muscarinic receptors): preserve selectivity for m1 receptors | potency as muscarinic antagonist relative to pirenzepine (literature) (muscarinic receptors): more potent antagonist | selectivity ratio / factor for m1 receptors (m1 muscarinic receptors [2]; m1 versus m2 receptors): 25

CC(C)(C)OC(=O)NCCCCCCN1CCN(CC(=O)N2c3ccccc3C(=O)Nc3cccnc32)CC1 [Compound 32d]
factor by which 29a and 32d differ in affinity at m2 receptors (m2 muscarinic receptors; m2): 280 | affinity / potency at muscarinic receptors [1]: more potent than the corresponding free amines (34) | factor by which 29a and 32d differ in affinity at m1 receptors (m1 muscarinic receptors [2]; m1): 360

CC(=O)NCCN1CCN(CC(=O)N2c3ccccc3C(=O)Nc3cccnc32)CC1 [Compound 28]
Ki [1]: ~1000 nM

CCN(CC)CCCCC1CCN(CC(=O)N2c3ccccc3C(=O)Nc3cccnc32)CC1 [AQ-RA 741]
muscarinic receptor selectivity (literature) (muscarinic receptors): selective for M2 receptors

C#CCN1CCN(CC(=O)N2c3ccccc3C(=O)Nc3cccnc32)CC1 [Compound 22, 5,11-Dihydro-11-[(4-propargyl-1-piperazinyl)acetyl]-6H-pyrido[2,3-b][1,4]benzodiazepine-6-one]
Ki [1]: ~1000 nM | receptor subtype selectivity [1]: non-selective

CN1CCN(CC(=O)N2c3ccccc3C(=O)N(CCCCCCC#N)c3cccnc32)CC1 [Compound 17b]
affinity / potency at muscarinic receptors [1]: low affinity

NCCCCCN1CCN(CC(=O)N2c3ccccc3C(=O)Nc3cccnc32)CC1 [Compound 34c]
selectivity ratio m1 versus m2 receptors (m1 muscarinic receptors [2]): 5 fold

CC(C)(C)OC(=O)NCCC(=O)NCCN1CCN(CC(=O)N2c3ccccc3C(=O)Nc3cccnc32)CC1 [Compound 29a]
factor by which 29a and 32d differ in affinity at m2 receptors (m2 muscarinic receptors; m2): 280 | affinity / potency at muscarinic receptors [1]: inactivity | factor by which 29a and 32d differ in affinity at m1 receptors (m1 muscarinic receptors [2]; m1): 360

CCN1C(=O)c2ccccc2N(C(=O)CN2CCN(C)CC2)c2ncccc21 [Compound 17a, 5-Ethyl-11-hydro-[(4-methyl-1-piperazinyl)acetyl]-6H-pyrido[2,3-b][1,4]-benzodiazepine-6-one]
affinity / potency at muscarinic receptors [1]: low affinity

CN1CCN(CC(=O)N2c3cc(CO)ccc3C(=O)Nc3cccnc32)CC1 [Compound 16, 5,11-Dihydro-9-hydroxymethyl-11-[(4-methyl-1-piperazinyl)acetyl]-6H-pyrido[2,3-b] [1,4]benzodiazepine-6-one]
displacement of [3H]NMS from the receptor [1]: detectable displacement of [^3 H]NMS
